Data reported in patent US4654342A, “6-(cyanoguanidinophenyl)pyridazinones as cardiac stimulants” (Smith Kline & French Laboratories Ltd., priority 1984, dated 1987).
Read-outs that look alike come from different tables or passages of the source.

Experiments:
[1] = test system: 2-pyridylethylamine-induced bronchoconstriction; assay: Bronchodilatation in vivo, 2-pyridylethylamine-induced bronchoconstriction; parameters: species or system guinea-pigs (Dunkin Hartley); details: i.v. bolus one minute before challenge
Procedure: Male guinea-pigs of the Dunkin Hartley strain (530 g±6 g) were anaesthetised with Sagatal (pentobarbital sodium) (90 mg/kg i.p.). Airway resistance was measured using a modification of the classical Konzett-Rossler technique (Versuchsanordnung zu Untersuchungen an der Bronchialmuskulatur. Naunyn-Schmiedebergs Arch. Exp. Path. Pharmak., 30: pp 121-145, (1940)). A dose of 2-pyridylethylamine which gave approximately 100% increase in airway resistance was selected for i.v. administration. Bolus doses of the compound of Example 1 were administered (i.v.) one minute before the 2-pyridylethylamine challenge.

[2] = test system: left ventricular dp/dt max; assay: Cardiac stimulant activity in vivo, anaesthetised cats (left ventricular dp/dt max); parameters: species or system cat; key to Relative Duration: ***: long; **: medium; *: short
From the text: The dose to increase left ventricular dp/dt max by 50% is given as the ED50.

[3] = test system: right ventricular strips; assay: Cardiac stimulant activity in vitro, guinea pig ventricular strips (force of contraction); details: Cavia porcellus, 50% increase in force of contraction; guinea pig ventricular strips; read-out: EC50 × 10^-6 M
Procedure: The compounds of formula (I) and their pharmaceutically acceptable salts are tested for cardiac stimulant activity following a procedure based on that of S. C. Verma and J. H. McNeill (J.Pharm & Exp. Therapeutics, 200, 352-362 (1977)). Guinea pigs (500-700 g) of either sex are sacrificed and the hearts are quickly removed and transferred to a dissecting dish containing oxygenated bathing fluid. While in the bathing medium, the right ventricle is cut into two strips. The strips are each suspended in a 50 ml bath containing Krebs Henseleit solution at 37° C., and the bath is bubbled with 95% oxygen and 5% carbon dioxide. The ventricular strips are electrically stimulated at a frequency of 1.0 Hz, at double the threshold voltage. A resting tension of 1.0 g is applied to the strips and the tension is kept constant by readjustment during an equilibration period of 60 minutes. The bathing fluid is frequently changed during this period. When a steady base line is obtained, a compound under test is added to the bathing fluid and a cumulative concentration response curve is plotted. The compounds for use in the present invention which were tested gave a 50% increase in the force of contraction of the ventricular strips at concentrations in the bathing fluid of less than 10^-4 molar, thus showing that they have activity as positive inotropic agents.

[4] = test system: hindquarters blood flow; assay: Vasodilator activity, anaesthetised rat hindquarters autoperfused at constant blood pressure; assay type: in vivo
From the text: The dose to increase hindquarters blood flow by 50% was 4.6 μmol/Kg.

[5] = test system: platelets; assay: Platelet aggregation inhibition in vitro (platelet rich plasma); assay type: cell-based, normal healthy volunteers (human)
Procedure: Plasma was prepared as follows. Blood from 6 normal healthy volunteers was mixed with 3.8% w/v trisodium citrate (9 parts blood: 1 part citrate). The samples were centrifuged at 150 g for 10 minutes and the supernatant platelet rich plasma (PRP) was removed. The platelet concentration in the PRP was adjusted to 300±50×10^9 /1 platelets with autologous platelet poor plasma.
25 μl aliquots of a 40 μg/ml solution of the compound of Example 1 were incubated with 225 μl aliquots of PRP in a Payton Aggregometer for 3 minutes. Control solutions, one matched to the test solution with respect to solution pH and tonicity, and another of 0.9% w/v NaCl were also studied. After 3 minutes 25 μl aliquots of adenosine diphosphate solution at a concentration of 20 μm were added to each solution. The aggregation response was recorded until complete with a maximum of 3 minutes. The procedure was repeated using as different aggregation agents: 100 μg collagen; 100 μm adrenaline or 5 mg/ml arachidonic acid instead of adenosine diphosphate.
The aggregation responses induced by the different aggregation agents were measured for the platelets from each donor. The results were assessed by visual examination of the aggregation tracing produced by the Payton aggregometer and semi-quantitatively assessed by measurement of the light transmission 3 minutes after adding the inducing agent.
Serial dilutions of this compound were prepared and tested for inhibition of adenosine diphosphate induced aggregation.

[6] = test system: left ventricular dp/dt max; assay: Cardiac stimulant activity in vivo, conscious dogs (left ventricular dp/dt max); parameters: species or system dog; details: for minimal effective dose: Canis lupus familiaris
Procedure: Oral administration caused positive inotropic responses at doses of 0.25 mg/kg and below. […] Therefore this compound is particularly beneficial with regard to `force-rate` selectivity.

[7] = i.v., anaesthetised rat hindquarters

For CNC(=NC#N)Nc1ccc(C2=NNC(=O)CC2C)cc1 (stereo not drawn) [Example 1, 6-[4-(N^3 -Methyl-N^2-cyanoguanidino)phenyl]-5-methyl-4,5-dihydro-3(2H)-pyridazinone], the ED50 ([1]; Cavia porcellus, iv, read-out: ED50, dose which reduced the 2-pyridylethylamine bronchoconstriction by 50%) was 0.39 µmol/kg, the minimal effective dose ([1]; Cavia porcellus, read-out: threshold dose) was 0.0316 µmol/kg and the “effect on 2-pyridylethylamine-induced bronchoconstriction” value [1] was “reduced the 2-pyridylethylamine-induced bronchoconstriction”. The ED50 ([2]; Felis catus, intravenous, dose to increase left ventricular dp/dt max by 50%, anaesthetised cats) was 0.2 µmol/kg, the “Relative Duration” value ([2]; estimated in anaesthetised cats following i.v. administration) was “***” and the EC50 [3] was 1400 nM. For the same compound, the ED (50% increase in hindquarters blood flow) ([4]; Rattus norvegicus, iv, anaesthetised rat, read-out: dose to increase hindquarters blood flow by 50%) was 4.6 µmol/kg, the “dose range of dose-dependent vasodilatation” value [4, 7] was 1 to 10 µmol/kg and the duration of activity [4, 7] was “significant duration of activity”. For the same compound, the IC100 ([5]; Homo sapiens, Platelet, adenosine diphosphate induced aggregation, serial dilutions, read-out: concentration completely inhibiting second wave aggregation) was no less than 0.5 µg/mL, the “inhibition of platelet aggregation induced by adenosine diphosphate” value ([5]; final concentrations of 5 μg/ml, adenosine diphosphate) was “inhibited platelet aggregation” and the “inhibition of platelet aggregation induced by adrenaline” value ([5]; final concentrations of 5 μg/ml, adrenaline) was “inhibited platelet aggregation”. For the same compound, the “inhibition of platelet aggregation induced by arachidonic acid” value ([5]; final concentrations of 5 μg/ml, arachidonic acid) was “inhibited platelet aggregation”, the “inhibition of platelet aggregation induced by collagen” value ([5]; final concentrations of 5 μg/ml, collagen) was “inhibited platelet aggregation” and the “changes in blood pressure or heart rate” value [6] was “without changes in blood pressure or heart rate”. The minimal effective dose ([6]; intravenous, read-out: dose increasing left ventricular dp/dt max) was less than 0.1 mg/kg, the minimal effective dose ([6]; oral, read-out: dose causing positive inotropic responses) was no more than 0.25 mg/kg and the “persistence of positive inotropic responses” value ([6]; persisted for up to) was 9 to 12 h.
